In one data set the test system is Colletotrichum coccodes. Nature of the data set: In vivo preventive test on Colletotrichum (tomatoes). Particulars: 3 days after inoculation. The method, then: (§1) The test is evaluated 3 days after the inoculation.
A further data set has as its system Phakopsora pachyrhizi. Nature of the data set: In vivo preventive test on Phakopsora (soybeans). Particulars: 7 days after inoculation.
Another data set deals with Alternaria solani. Put plainly: In vivo preventive test on Alternaria (tomatoes). Here is the method:
The plants are then placed in an incubation cabinet at approximately 20° C. and a relative atmospheric humidity of 100%.
as §1

In the next data set the test system is Pyricularia oryzae. The format is cell-based.
For another data set, the system named is Septoria tritici. Nature of the data set: In vivo preventive Septoria tritici test (wheat). Particulars: 21 days after inoculation. Here is the method:
After the spray coating has been dried, the plants are sprayed with a spore suspension of Septoria tritici.
The test is evaluated 21 days after the inoculation.

The subject of data set [1] is fish (Danio rerio) embryos. Put plainly: In vivo ecotoxicity screening test on fish (Danio rerio). Particulars: active compound alone; fish embryos, 96 h, 28.5° C. Here is the method: with ECxi the Effect Concentration (EC) of each chemical i (in ppm) causing x % effect on the ecotoxicity test endpoint.
For each compound combination, the predicted ECx value is calculated. It is then compared to an experimentally measured value. The ratio of predicted versus measured effect for the combination (thereafter called the Model Deviation Ratio or MDR) is then calculated.
The environmental effect of the compound combinations was measured experimentally in laboratory ecotoxicity screening studies with fish (Danio rerio). […] Mortality was recorded after 96 h for each tested concentration and a reference control. […] Then, the MDR values were calculated.
• Solvent: 0.5% by weight dimethyl sulfoxide
This concentrate is then diluted with water to the desired a.i. concentration, leading to a maximal solvent concentration of 0.5% by weight. The compounds alone and the combinations were tested for five increasing concentrations between 0.01 and 1000 ppm a.i., (e.g. 0.1, 1.0, 10 and 100 ppm a.i). For the combinations, compounds A and B were mixed in a weight ratio of 5:1 to 1:5 and five increasing concentrations were tested for each ratio.

The subject of another data set is Puccinia triticina. Nature of the data set: In vivo preventive Puccinia triticina test (wheat). Particulars: 8 days after inoculation. Here is the method:
After the spray coating has been dried, the plants are sprayed with a spore suspension of Puccinia triticina.
The test is evaluated 8 days after the inoculation.

The subject of another data set is Pyrenophora teres. Put plainly: In vitro-Test with Pyrenophora teres. The format is cell-based.
For a further data set, the system named is Venturia inaequalis. Nature of the data set: In vivo preventive test on Venturia (apples). Particulars: Table E1, 10 days after inoculation. The method, then:
The test is evaluated 10 days after the inoculation.

[2] abbreviates: Alternaria solani, 72 h, read-out: Efficacy in % found.

Several values for one entry are separate records, joined by “and”; a condition that tells them apart may be missing. Equal entries are not always repeated. Where two headings read alike, the source gives them in different places.

Consider `OC(Cc1ccccc1Cl)(Cn1nc[nH]c1=S)C1(Cl)CC1` (stereo not shown) [1.018 prothioconazole, prothioconazole], for which the “Efficacy in % found” value in the data set with Colletotrichum coccodes (Table B1, 2.5 ppm a.i.) is 38%; with Colletotrichum coccodes (Table B1, 5 ppm a.i.), 59%; in the data set on Colletotrichum coccodes (Table B1, 10 ppm a.i.), 79%.
On to `CCCN(CC)CC1COC2(CCC(C(C)(C)C)CC2)O1` (stereo not shown) [1.020 spiroxamine, spiroxamine], for which the “Efficacy in % found” value in the data set on Phakopsora pachyrhizi (Table C1, 25 ppm a.i.) was found to be 23%; in the data set on Phakopsora pachyrhizi (Table C1, 50 ppm a.i.), 50%; in the data set with Phakopsora pachyrhizi (Table C1, 100 ppm a.i.), 75%; in the data set on Alternaria solani (Table A1, 25 ppm a.i., 3 days after inoculation), 13%; in the data set on Alternaria solani (Table A1, 50 ppm a.i., 3 days after inoculation), 38%; with Alternaria solani (Table A1, 100 ppm a.i., 3 days after inoculation), 49%. For the same compound, the “Efficacy in % found” value is on record as 33% in the data set on Colletotrichum coccodes (Table B1, 25 ppm a.i.); 44% in the data set on Colletotrichum coccodes (Table B1, 50 ppm a.i.); 49% with Colletotrichum coccodes (Table B1, 100 ppm a.i.).
Take `CC(C)(C)C(O)(CCc1ccc(Cl)cc1)Cn1cncn1` (stereo not shown) [1.021 tebuconazole, tebuconazole]: the pest or weed control at 2.5 ppm in the data set on Alternaria solani (Alternaria solani, 72 h, Table A1, 2.5 ppm a.i., 3 days after inoculation, read-out: Efficacy in % found) was 5%. In addition, the pest or weed control at 5 ppm with Alternaria solani (Alternaria solani, 72 h, Table A1, 5 ppm a.i., 3 days after inoculation, read-out: Efficacy in % found) came to 21%. Besides, the pest or weed control at 10 ppm in the data set with Alternaria solani (Alternaria solani, 72 h, Table A1, 10 ppm a.i., 3 days after inoculation, read-out: Efficacy in % found) was determined as 74%. The “Efficacy in % found” value is 44% in the data set with Colletotrichum coccodes (Table B1, 2.5 ppm a.i.); 44% in the data set on Colletotrichum coccodes (Table B1, 5 ppm a.i.); 64% with Colletotrichum coccodes (Table B1, 10 ppm a.i.).
On to `O=C(Nc1ccccc1)N(Cc1ccc(Cl)cc1)C1CCCC1` [4.005 pencycuron, pencycuron], for which the pest or weed control at 25 ppm in the data set on Alternaria solani (Alternaria solani, 72 h, Table A1, 25 ppm a.i., 3 days after inoculation, read-out: Efficacy in % found) worked out at 5%. Further, the pest or weed control at 50 ppm in the data set on Alternaria solani (Alternaria solani, 72 h, Table A1, 50 ppm a.i., 3 days after inoculation, read-out: Efficacy in % found) was determined as 21%. The pest or weed control at 100 ppm in the data set on Alternaria solani (Alternaria solani, 72 h, Table A1, 100 ppm a.i., 3 days after inoculation, read-out: Efficacy in % found) came out at 33%. In addition, the “Efficacy in % found” value in the data set on Colletotrichum coccodes (Table B1, 25 ppm a.i.) stood at 33%; in the data set on Colletotrichum coccodes (Table B1, 50 ppm a.i.), 33%; in the data set on Colletotrichum coccodes (Table B1, 100 ppm a.i.) it was 33%.
Turning to `N#Cc1c(Cl)c(Cl)c(Cl)c(C#N)c1Cl` [5.004 chlorothalonil, chlorothalonil], the pest or weed control at 25 ppm in the data set with Alternaria solani (Alternaria solani, 72 h, 25 ppm a.i., tomatoes, 3 days after inoculation, read-out: Efficacy in % found) turned out to be 13%. Also, the pest or weed control at 50 ppm in the data set with Alternaria solani (Alternaria solani, 72 h, 50 ppm a.i., tomatoes, 3 days after inoculation, read-out: Efficacy in % found) was determined as 33%. Also, the “Efficacy in % found” value in the data set with Colletotrichum coccodes (Table B2, 25 ppm a.i.) came to 8%; in the data set with Colletotrichum coccodes (Table B2, 50 ppm a.i.), 8%.
Take `Cc1nn(C)c(F)c1C(=O)Nc1ccccc1C(C)CC(C)C` (stereo not shown) [Example 2.017, penflufen]: the Efficacy % with Pyricularia oryzae (1 ppm) was 44%; in the data set on Pyricularia oryzae (5 ppm), 91%. Also, the “Efficacy in % found” value with Septoria tritici (20 ppm a.i.) stood at 29%; in the data set on Septoria tritici (40 ppm a.i.), 0%; in the data set with Septoria tritici (80 ppm a.i.) it was 0%; in the data set on Puccinia triticina (20 ppm a.i.), 56%; in the data set with Puccinia triticina (40 ppm a.i.), 89%; in the data set with Puccinia triticina (80 ppm a.i.), 100%. In addition, the “Ecotoxicity LC50-96 h found” value in data set [1] worked out at 0.62 ppm a.i.
With `CC1CC(C)(C)c2cccc(NC(=O)c3cn(C)nc3C(F)F)c21` (stereo not shown) [Example 2.027, 3-(difluoromethyl)-1-methyl-N-(1,1,3-trimethyl-2,3-dihydro-1H-inden-4-yl)-1H-pyrazole-4-carboxamide], the “Efficacy in % found” value in the data set with Phakopsora pachyrhizi (Table C2, 1 ppm a.i.) was 50%; in the data set with Phakopsora pachyrhizi (Table C2, 2 ppm a.i.), 95%; in the data set with Phakopsora pachyrhizi (Table C2, 4 ppm a.i.), 100%. Further, in the data set on Alternaria solani (setting [2]), the pest or weed control at 1 ppm turned out to be 0%. In addition, the pest or weed control at 2 ppm with Alternaria solani (setting [2]) stood at 3%. Besides, the pest or weed control at 4 ppm with Alternaria solani (setting [2]) amounted to 11%. For the same compound, in the data set with Septoria tritici (Zymoseptoria tritici, 504 h, read-out: Efficacy in % found, 62.5 ppm a.i.), the pest or weed control at 62.5 ppm amounted to 25%. For the same compound, in the data set on Septoria tritici (Zymoseptoria tritici, 504 h, read-out: Efficacy in % found, 125 ppm a.i.), the pest or weed control at 125 ppm stood at 63%. For the same compound, the Efficacy % with Pyrenophora teres (4 ppm) stood at 43%; with Pyrenophora teres (20 ppm), 62%.
With `COc1ccnc(C(=O)N[C@H]2COC(=O)[C@H](Cc3ccccc3)[C@@H](OC(=O)C(C)C)[C@H](C)OC2=O)c1OCOC(=O)C(C)C` [Example 3.025, (3S,6S,7R,8R)-8-benzyl-3-[({3-[(isobutyryloxy)methoxy]-4-methoxypyridin-2-yl}carbonyl)amino]-6-methyl-4,9-dioxo-1,5-dioxonan-7-yl 2-methylpropanoate], the Efficacy % in the data set on Pyricularia oryzae (0.8 ppm) is 91% and 67%; in the data set on Pyricularia oryzae (4 ppm), 84% and 85%; in the data set with Pyricularia oryzae (20 ppm), 100% and 72%; in the data set with Pyrenophora teres (100 ppm), 10%. Also, the “Efficacy in % found” value in the data set with Phakopsora pachyrhizi (Table C2, 5 ppm a.i.) turned out to be 23%; in the data set with Phakopsora pachyrhizi (Table C2, 10 ppm a.i.) it was 40%; with Phakopsora pachyrhizi (Table C2, 20 ppm a.i.) it was 63%. The pest or weed control at 5 ppm in the data set on Alternaria solani (setting [2]) was 18%. Further, in the data set on Alternaria solani (setting [2]), the pest or weed control at 10 ppm turned out to be 18%. In the data set with Alternaria solani (setting [2]), the pest or weed control at 20 ppm worked out at 58%. Moreover, the pest or weed control at 37.5 ppm is 13% in the data set with Septoria tritici (Zymoseptoria tritici, 504 h, read-out: Efficacy in % found, 37.5 ppm a.i.) and 22% in the data set with Puccinia triticina (Puccinia triticina, 192 h, read-out: Efficacy in % found, Table H1, 37.5 ppm a.i.). Further, the pest or weed control at 150 ppm in the data set with Septoria tritici (Zymoseptoria tritici, 504 h, read-out: Efficacy in % found, 150 ppm a.i.) was found to be 63%; in the data set with Puccinia triticina (Puccinia triticina, 192 h, read-out: Efficacy in % found, Table H1, 150 ppm a.i.) it was 89%. In data set [1], the “Ecotoxicity LC50-96 h found” value turned out to be 1.87 ppm a.i. In the data set on Puccinia triticina (Puccinia triticina, 192 h, read-out: Efficacy in % found, Table H1, 75 ppm a.i.), the pest or weed control at 75 ppm was 67%.
As for `N#Cc1c[nH]cc1-c1cccc2c1OC(F)(F)O2` [Example 13.001, fludioxonil], the Efficacy % was 82% with Pyricularia oryzae (0.2 ppm); 87% and 88% in the data set with Pyricularia oryzae (1 ppm); 89% and 79% in the data set on Pyricularia oryzae (5 ppm). The pest or weed control at 20 ppm in the data set on Septoria tritici (Zymoseptoria tritici, 504 h, read-out: Efficacy in % found, 20 ppm a.i.) came to 29%; in the data set on Puccinia triticina (Puccinia triticina, 192 h, read-out: Efficacy in % found, 20 ppm a.i.) it was 0%; with Puccinia triticina (Puccinia triticina, 192 h, read-out: Efficacy in % found, Table H1, 20 ppm a.i.), 0%. Besides, the pest or weed control at 40 ppm in the data set on Septoria tritici (Zymoseptoria tritici, 504 h, read-out: Efficacy in % found, 40 ppm a.i.) worked out at 29%; in the data set on Puccinia triticina (Puccinia triticina, 192 h, read-out: Efficacy in % found, 40 ppm a.i.) it was 0%; in the data set on Puccinia triticina (Puccinia triticina, 192 h, read-out: Efficacy in % found, Table H1, 40 ppm a.i.) it was 0%. Moreover, the pest or weed control at 80 ppm with Septoria tritici (Zymoseptoria tritici, 504 h, read-out: Efficacy in % found, 80 ppm a.i.) amounted to 29%; with Puccinia triticina (Puccinia triticina, 192 h, read-out: Efficacy in % found, 80 ppm a.i.), 0%; in the data set on Puccinia triticina (Puccinia triticina, 192 h, read-out: Efficacy in % found, Table H1, 80 ppm a.i.), 22%. In addition, the “Ecotoxicity LC50-96 h found” value in data set [1] was 0.89 ppm a.i. Further, the “Efficacy in % found” value was 8% with Venturia inaequalis (5 ppm a.i.), 4% in the data set on Venturia inaequalis (10 ppm a.i.) and 4% in the data set on Venturia inaequalis (20 ppm a.i.).
mancozeb [5.013 mancozeb]: the “Efficacy in % found” value in the data set with Alternaria solani (12.5 ppm a.i., tomatoes, 3 days after inoculation) was found to be 28%; in the data set with Alternaria solani (25 ppm a.i., tomatoes, 3 days after inoculation) it was 33%; with Alternaria solani (50 ppm a.i., tomatoes, 3 days after inoculation) it was 77%; with Colletotrichum coccodes (Table B2, 12.5 ppm a.i.) it was 0%; in the data set on Colletotrichum coccodes (Table B2, 25 ppm a.i.), 0%; with Colletotrichum coccodes (Table B2, 50 ppm a.i.) it was 0%.

The values are drawn from patent publication US20200008426A1, “ACTIVE COMPOUND COMBINATIONS” (BAYER AKTIENGESELLSCHAFT, priority 2017, published 2020).
